Data: the NIST ThermoML archive (doi:10.1021/je0498560)
± gives the expanded uncertainty stated by the source.

Assay: xn = mol fraction of the nth substance listed
Details: Liquid

OCC(F)(F)F [2,2,2-trifluoroethanol] + O=C=O
molar volume (298 K, x2 = 0.132): 6.39e-05 ± 1.4e-06 m3/mol | molar volume (298 K, x2 = 0.225): 6.3e-05 ± 1.4e-06 m3/mol | molar volume (298 K, x2 = 0.358): 5.95e-05 ± 1.3e-06 m3/mol | molar volume (298 K, x2 = 0.48): 5.81e-05 ± 1.2e-06 m3/mol | molar volume (298 K, x2 = 0.599): 5.71e-05 ± 1.2e-06 m3/mol | molar volume (298 K, x2 = 0.704): 5.51e-05 ± 1.1e-06 m3/mol | molar volume (298 K, x2 = 0.749): 5.51e-05 ± 1.1e-06 m3/mol | molar volume (298 K, x2 = 0.795): 5.43e-05 ± 1.1e-06 m3/mol | molar volume (298 K, x2 = 0.842): 5.49e-05 ± 1.1e-06 m3/mol | molar volume (298 K, x2 = 0.888): 5.48e-05 ± 1.1e-06 m3/mol | molar volume (298 K, x2 = 0.927): 5.5e-05 ± 1.1e-06 m3/mol | molar volume (313 K, x2 = 0.16): 6.1e-05 ± 1.5e-06 m3/mol | molar volume (313 K, x2 = 0.23): 6.13e-05 ± 1.5e-06 m3/mol | molar volume (313 K, x2 = 0.337): 6.06e-05 ± 1.4e-06 m3/mol | molar volume (313 K, x2 = 0.424): 5.94e-05 ± 1.4e-06 m3/mol | molar volume (313 K, x2 = 0.517): 5.84e-05 ± 1.4e-06 m3/mol | molar volume (313 K, x2 = 0.628): 5.51e-05 ± 1.3e-06 m3/mol | molar volume (313 K, x2 = 0.715): 5.3e-05 ± 1.2e-06 m3/mol | molar volume (313 K, x2 = 0.773): 5.34e-05 ± 1.2e-06 m3/mol | molar volume (313 K, x2 = 0.849): 5.65e-05 ± 1.3e-06 m3/mol | molar volume (313 K, x2 = 0.901): 5.98e-05 ± 1.3e-06 m3/mol

CN1CCCC1=O [N-methylpyrrolidone] + O=C=O
molar volume (313 K, x2 = 0.104): 8.91e-05 ± 2.1e-06 m3/mol | molar volume (313 K, x2 = 0.19): 8.48e-05 ± 2e-06 m3/mol | molar volume (313 K, x2 = 0.242): 8.26e-05 ± 1.9e-06 m3/mol | molar volume (313 K, x2 = 0.311): 7.9e-05 ± 1.8e-06 m3/mol | molar volume (313 K, x2 = 0.374): 7.57e-05 ± 1.8e-06 m3/mol | molar volume (313 K, x2 = 0.437): 7.32e-05 ± 1.7e-06 m3/mol | molar volume (313 K, x2 = 0.499): 6.98e-05 ± 1.6e-06 m3/mol | molar volume (313 K, x2 = 0.565): 6.66e-05 ± 1.5e-06 m3/mol | molar volume (313 K, x2 = 0.629): 6.23e-05 ± 1.4e-06 m3/mol | molar volume (313 K, x2 = 0.725): 5.67e-05 ± 1.3e-06 m3/mol | molar volume (313 K, x2 = 0.816): 5.34e-05 ± 1.2e-06 m3/mol

CC(C)=O [acetone] + O=C=O
molar volume (323 K, x2 = 0.056): 7.37e-05 ± 1.8e-06 m3/mol | molar volume (323 K, x2 = 0.14): 7.18e-05 ± 1.8e-06 m3/mol | molar volume (323 K, x2 = 0.251): 6.75e-05 ± 1.7e-06 m3/mol | molar volume (323 K, x2 = 0.335): 6.67e-05 ± 1.7e-06 m3/mol | molar volume (323 K, x2 = 0.432): 6.42e-05 ± 1.6e-06 m3/mol | molar volume (323 K, x2 = 0.53): 6.23e-05 ± 1.5e-06 m3/mol | molar volume (323 K, x2 = 0.603): 6.1e-05 ± 1.5e-06 m3/mol | molar volume (323 K, x2 = 0.648): 6.01e-05 ± 1.5e-06 m3/mol | molar volume (323 K, x2 = 0.695): 5.71e-05 ± 1.4e-06 m3/mol | molar volume (323 K, x2 = 0.73): 5.66e-05 ± 1.4e-06 m3/mol | molar volume (323 K, x2 = 0.76): 5.74e-05 ± 1.4e-06 m3/mol | molar volume (323 K, x2 = 0.787): 5.81e-05 ± 1.4e-06 m3/mol

CC#N [acetonitrile] + O=C=O
molar volume (313 K, x2 = 0.044): 5.19e-05 ± 1.2e-06 m3/mol | molar volume (313 K, x2 = 0.073): 5.25e-05 ± 1.2e-06 m3/mol | molar volume (313 K, x2 = 0.093): 5.33e-05 ± 1.2e-06 m3/mol | molar volume (313 K, x2 = 0.168): 5.24e-05 ± 1.2e-06 m3/mol | molar volume (313 K, x2 = 0.241): 5.11e-05 ± 1.2e-06 m3/mol | molar volume (313 K, x2 = 0.312): 5.1e-05 ± 1.1e-06 m3/mol | molar volume (313 K, x2 = 0.381): 5.18e-05 ± 1.2e-06 m3/mol | molar volume (313 K, x2 = 0.449): 5.07e-05 ± 1.1e-06 m3/mol | molar volume (313 K, x2 = 0.523): 4.98e-05 ± 1.1e-06 m3/mol | molar volume (313 K, x2 = 0.598): 4.96e-05 ± 1.1e-06 m3/mol | molar volume (313 K, x2 = 0.688): 4.9e-05 ± 1.1e-06 m3/mol | molar volume (313 K, x2 = 0.77): 4.87e-05 ± 1.1e-06 m3/mol | molar volume (313 K, x2 = 0.834): 5.08e-05 ± 1.2e-06 m3/mol

ClCCl [dichloromethane] + O=C=O
molar volume (313 K, x2 = 0.044): 6.51e-05 ± 1.5e-06 m3/mol | molar volume (313 K, x2 = 0.114): 6.32e-05 ± 1.5e-06 m3/mol | molar volume (313 K, x2 = 0.188): 6.24e-05 ± 1.5e-06 m3/mol | molar volume (313 K, x2 = 0.269): 6.13e-05 ± 1.4e-06 m3/mol | molar volume (313 K, x2 = 0.444): 5.87e-05 ± 1.4e-06 m3/mol | molar volume (313 K, x2 = 0.533): 5.74e-05 ± 1.3e-06 m3/mol | molar volume (313 K, x2 = 0.644): 5.64e-05 ± 1.3e-06 m3/mol | molar volume (313 K, x2 = 0.738): 5.32e-05 ± 1.2e-06 m3/mol | molar volume (313 K, x2 = 0.83): 5.42e-05 ± 1.2e-06 m3/mol | molar volume (313 K, x2 = 0.859): 5.82e-05 ± 1.3e-06 m3/mol
